From patent publication US20250228915A1, “DISTINCT CD8+ T CELL PROGRAMMING IN THE TUMOR MICROENVIRONMENT CONTRIBUTES TO SEX BIAS IN CANCER” (Ohio State Innovation Foundation, priority 2022, published 2025) come the findings set out here.

For experiment [1], the system named is AR-overexpressing Jurkat cells. The note with it: 100 nM, prolonged stimulation over 9 days (FIG. 14B).
Procedure: Empty vector and androgen receptor-expressing Jurkat cells were seeded into six well plates (Gibco) at 2×10^5 cells per well and treated with 100 nM testosterone (Sigma) or DHT (Millipore), alongside methanol vehicle control (Thermo Fisher). Every three days, cells were counted using the BioRad TC20 automated cell counter, passaged, and re-stimulated with the same androgen concentrations over a time course of 3, 6, and 9 days.
Experiment [2] relates to human Tcf7 promoter in EGFP-C1-AR overexpressing HEK293FT cells. The note with it: AR-transfected HEK293FT, 24 h, 500 ng/mL testosterone or 50 nM DHT; AR dependent (FIG. 7E).
Procedure: WT or mutated human Tcf7 promoter sequence of one kb upstream from its transcriptional start site was cloned into the pMCS-Red Firefly Luciferase vector (Thermo Fisher). Mutants lacked individual (“Mut 1-4”) or all putative AR binding sites. Briefly, 40,000 HEK293FT cells were grown on a 96 well plate at 80% confluence. […] Renilla luciferase gene expression was used to ensure transfection efficiency (Thermo Fisher). Twenty four hours after transfection, cells were treated with 500 ng/ml testosterone or 50 nM DHT for another 24 hours. Cells were then harvested and luciferase activity was analyzed by using Dual-Luciferase Reporter Assay System (Promega).
For experiment [3], the system named is MB49 mouse urothelial carcinoma cells. Briefly: MB49 tumor growth in WT mice under daily vehicle or enzalutamide. Format: in vivo. The note with it: male WT mice, MB49 subcutaneous; enzalutamide 25 mg/kg daily oral gavage from Day 5 vs vehicle (FIG. 5J). The method, then: MB49 (a gift from C. Voelkel-Johnson from the Medical University of South Carolina) and BKL171 mouse urothelial carcinoma cells were cultured in Dulbecco's modified Eagle's medium with 10% heat-inactivated fetal bovine serum and 1% penicillin/streptomycin. 5×10^5 tumor cells were resuspended in 100 μL ice cold PBS for subcutaneous injection into the right flank of a mouse. For antibody-mediated T cell depletion experiments, mice were injected intraperitoneally with 200 μg of anti-mouse CD4 (Clone GK1.5, BioXCell) and/or CD8 neutralizing antibodies (Clone 53-6.7, BioXCell), followed by 100 μg thereafter on the indicated days. For experiments involving enzalutamide, mice were treated daily with either vehicle control or enzalutamide (25 mg/kg) in 1% carboxymethylcellulose with 0.1% Tween 80 and 2.5% DMSO through oral gavage starting on Day 5 post MB49 subcutaneous injection. Tumor surface area (width×length mm^2) was measured using an electronic caliper starting on Day 4 post implantation.

Experiment [4] has as its system CD8+ T cells (Tcf7, Ar transcripts). The experiment can be described thus: qPCR of naïve CD8+ T cells stimulated with testosterone, type I IFN or both. The format is cell-based, mouse. As for the experimental part: Mouse spleens and tumors were mechanically disrupted, with the latter additionally subjected to digestion with 1 mg/mL Collagenase D (Roche) for 30 min at 37° C. while shaken at 125 rpm. Excess volume of ice-cold PBS with 2% bovine serum albumin was used to inactivate the enzymatic activity. Red Blood Cell Lysis Buffer (BioLegend) was utilized on tissues before they were passed through 70 µm filters to prepare single cell suspensions. For cytokine production experiments, cells were re-stimulated by 50 ng/mL PMA (Sigma), 1 μg/mL Ionomycin (Sigma) and 1× Brefeldin A (BioLegend) in a 48-well plate for 2 hours at 37° C. For in vitro cultures, purified CD8^+ T cells were left untreated or stimulated with 50 ng/mL testosterone (Sigma) and/or 50 U/mL mouse IFN alpha A (PBL Assay Science). Cells were stained at 4° C. with eFluor506 fixable viability dye for 10 minutes (Invitrogen), followed by extracellular surface markers and FcR block concurrently for 30 minutes. All intracellular staining was performed using the Foxp3 transcription factor staining kit (Invitrogen) according to the manufacturer's instructions. […]
RNA was extracted from FACS/MACS-isolated CD8^+ T cells and reverse-transcribed using RNeasy Micro Kit (Qiagen) and SuperScript™ IV VILO™ Master Mix with ezDNase™ Enzyme (ThermoFisher Scientific), respectively. Quantitative PCR was performed with the following primers: […]
In general terms: In qPCR the cycle at which signal appears reflects the starting amount.

On to `C[C@]12CCC(=O)C[C@@H]1CC[C@@H]1[C@@H]2CC[C@]2(C)[C@@H](O)CC[C@@H]12` [DHT, dihydrotestosterone], for which the proliferation result in experiment [1] is “decreased proliferation”. For the same molecule, the “Tcf7 promoter activity (luciferase)” value in experiment [2] was “stimulated”.

For `CNC(=O)c1ccc(N2C(=S)N(c3ccc(C#N)c(C(F)(F)F)c3)C(=O)C2(C)C)cc1F` [enzalutamide], in experiment [3], the tumor growth result is on record as “partial protection against tumor growth”.

Consider `C[C@]12CC[C@H]3[C@@H](CCC4=CC(=O)CC[C@@]43C)[C@@H]1CC[C@@H]2O` [testosterone], for which, in experiment [1], the proliferation entry is on record as “decreased proliferation”. The “Ar expression (qPCR)” value in experiment [4] (female CD8+ T cells, testosterone (FIG. 7D)) was “induction of Ar expression”. In addition, the “Tcf7 expression (qPCR)” value in experiment [4] (male CD8+ T cells, acute testosterone exposure, 6 hours (FIG. 7D)) was “significantly increased”. In experiment [2], the “Tcf7 promoter activity (luciferase)” value was “stimulated”.
